Test results: patent publication US20190321417A1, “BACTERIAL PROBIOTIC TO DETOXIFY HERBICIDES AND INSECTICIDES” (PRESIDENT AND FELLOWS OF HARVARD COLLEGE, priority 2018, published 2019)

Assays:
Nasonia [1] = assay: Herbicide toxicity (LC50) in adult Nasonia from generationally-atrazine exposed and naïve populations; format: in vivo, Nasonia virtipennis; details: 24 hr old adults
Excerpt: (§1) FIGS. 3A-3C present data that show atrazine resistance. (FIG. 3A) The median lethal concentration of atrazine to kill half of the population (LC50) in ppm for each generation of the Naïve populations (open circles) and the Atrazine exposed populations (black circles). (FIG. 3B) The median lethal concentration of atrazine to kill half of the population (LC50) in ppm for each generation of the Naïve populations (open circles) and the Atrazine exposed populations (black circles) when grown Germfree, gnotobiotic. Without bacteria, both populations experience increased toxicity of atrazine, over 100 fold greater than normal generations' LC50. (FIG. 3C) LC50 survival of 24 hrs old adult Nasonia virtipennis were sprayed with a sterile PBS solution (squares), S. marcescens TVIT01 (8×10^6 cells/ml, circles), or P. protegens TVIT02 (3×10^8 cells/ml, triangles) and incubated for 6 hr before being fed 100 ppm of atrazine sugar solution (A) or only sugar solution (C), and their survival was calculated 48 hrs later. Three replicates of 50 individuals are for each treated group (Two-tailed t test, *P<0.05).
Toxicity experiments were conducted at a range of concentrations for both atrazine and Glyphosate to test the effect that the new microbiome has on increasing resistance. 50 adults (24 hr old) were put into vials from either the generationally-atrazine exposed populations or the naïve populations and exposed to atrazine or glyphosate at parts per million concentrations of 0 ppm, 10 ppm, 30 ppm, 100 ppm, 200 ppm, 400 ppm, 600 ppm, 800 ppm, 1000 ppm. Mortality was recorded after 0, 24, 48, 72, 96, 120, 168 hours (from atrazine exposure point). These were conducted in concurrent replicate experiments.

Nasonia [2] = assay: Atrazine toxicity in germfree, gnotobiotic Nasonia populations; format: in vivo, Nasonia virtipennis; details: both exposed and naïve populations, 0-30 ppb atrazine, up to 96 hr
Excerpt: as §1
To test the role of the microbiome as a detoxicant to herbicides, both populations were tested in germfree, gnotobiotic, conditions. Survival was measured when exposed atrazine concentrations of 0, 5 ppb, 10 ppb, 15 ppb, 25 ppb, 30 ppb for up to 96 hr. […]

[3] = generationally-atrazine exposed populations

SMILES | median lethal concentration to kill half of the population (LC50) (Nasonia [1]; [3]) [ppm] | median lethal concentration to kill half of the population (LC50) (Nasonia [1]; naïve populations) [ppm] | increase in toxicity with bacteria removed, compared to normal (Nasonia [2]) [fold]
O=C(O)CNCP(=O)(O)O [Glyphosate, N-(phosphonomethyl)glycine] | 315 | 148 | –
CCNc1nc(Cl)nc(NC(C)C)n1 [atrazine, Atrazine] | 562 | 62 | > 100
